Assay results: ChEMBL document CHEMBL1781900, “Synthesis and peptide incorporation of an unnatural amino acid containing activity-based probe for protein tyrosine phosphatases” (Bioorg Med Chem Lett, 2009)
Numbering of substitutions follows the chain as printed. The source made the active and inactive calls. No cut-off for these calls is given here.

Key:
Escherichia coli [1] = assay: Binding affinity to PTP4A3 in Escherichia coli lysate at 0.8 mM after 1 hr by Western blotting analysis in presence of alpha-bromobenzylphosphonate
[2] = biological target: T1, Tyrosine-protein phosphatase non-receptor type 1 (Homo sapiens) (UniProt P18031); assay: Binding affinity to purified recombinant PTP1B using streptaive HRP at 20 uM after 1 hr by Western blotting analysis
T1 sequence (whole entry): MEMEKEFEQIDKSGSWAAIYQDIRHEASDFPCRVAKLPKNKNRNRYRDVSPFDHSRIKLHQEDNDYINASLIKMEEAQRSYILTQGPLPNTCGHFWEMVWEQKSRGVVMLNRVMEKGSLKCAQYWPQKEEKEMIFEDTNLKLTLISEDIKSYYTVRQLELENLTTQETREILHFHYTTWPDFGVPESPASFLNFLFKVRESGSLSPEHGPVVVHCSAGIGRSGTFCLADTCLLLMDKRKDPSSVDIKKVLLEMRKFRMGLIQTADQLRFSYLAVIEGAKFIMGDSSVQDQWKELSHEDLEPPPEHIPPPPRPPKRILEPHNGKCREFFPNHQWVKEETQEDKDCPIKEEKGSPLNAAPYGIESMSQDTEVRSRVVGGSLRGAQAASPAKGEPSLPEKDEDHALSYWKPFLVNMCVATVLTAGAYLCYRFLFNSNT

[3] = biological target: T1, Tyrosine-protein phosphatase non-receptor type 1 (Homo sapiens); assay: Binding affinity to purified recombinant PTP1B using streptaive HRP at 200 uM after 1 hr by Western blotting analysis
[4] = biological target: Protein tyrosine phosphatase type IVA 3 (Homo sapiens) (UniProt O75365); assay: Binding affinity to purified recombinant PTP4A3 using streptaive HRP at 20 uM after 1 hr by Western blotting analysis
Jurkat = assay: Binding affinity to PTP1B in human Jurkat cell lysate at 0.8 mM after 1 hr by Western blotting analysis in presence of alpha-bromobenzylphosphonate; type: cell-free
[5] = system: T2, Tyrosine-protein phosphatase non-receptor type 1 (Homo sapiens), P18031 [C215S]; assay: Binding affinity to purified recombinant dPTP1B C215S mutant using streptaive HRP at 200 uM after 1 hr by Western blotting analysis
T2 sequence (whole entry): T1 sequence (whole entry) with C215S

[6] = biological target: Protein tyrosine phosphatase type IVA 3 (Homo sapiens) (UniProt O75365); assay: Binding affinity to purified recombinant PTP4A3 using streptaive HRP at 200 uM by Western blotting analysis
Escherichia coli [7] = assay: Binding affinity to PTP1B in Escherichia coli lysate at 0.8 mM after 1 hr by Western blotting analysis

Protein tyrosine phosphatase type IVA 3 (Homo sapiens), sequence (O75365 whole entry): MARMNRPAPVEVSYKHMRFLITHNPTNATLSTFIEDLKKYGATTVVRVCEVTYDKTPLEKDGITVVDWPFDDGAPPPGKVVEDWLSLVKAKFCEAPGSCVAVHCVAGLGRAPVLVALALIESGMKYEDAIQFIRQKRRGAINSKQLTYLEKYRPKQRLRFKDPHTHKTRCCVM

Activity (Escherichia coli [1]): Active
Activity [2]: Active
Activity [3]: Active
Activity [4]: inactive
Activity [5]: inactive
Activity [6]: Active
Activity (Escherichia coli [7]): Active
Compound: NC(=O)[C@H](Cc1ccc(OP(=O)(O)O)c(C(F)F)c1)NC(=O)[C@H](CC(=O)O)NC(=O)Cc1ccc(C(F)(F)P(=O)(O)O)cc1
Activity (Jurkat): Active
